Key:
Format in all cases: cell-based
Ba/F3 cells HER2 WT = experiment: Ba/F3 proliferation assay HER2 WT; conditions: Mus musculus, BaF3; 72 h, CellTiter-Glo
Experimental: (§1) Ba/F3 cell model generation and proliferation assays
(§2) Plasmids containing HER2 mutants and EGFR WT were obtained from GeneScript. To generate EGFR/HER2-dependent Ba/F3 models, Ba/F3 cells were transduced with retroviruses containing vectors that harbor EGFR WT, HER2 WT or HER2 mutants (YVMA). Platinum-E cells (Cell Biolabs) were used for retrovirus packaging. Retrovirus was added to Ba/F3 cells. To ensure infection, 4 μg/mL polybrene was added and cells were spinfected. Infection efficiency was confirmed by measuring GFP-positive cells using a cell analyzer. Cells with an infection efficiency of 10% to 20% were further cultivated and puromycin selection with 1 μg/mL was initiated. As a control, parental Ba/F3 cells were used to assess the selection status. Selection was considered successful when parental Ba/F3 cells cultures died. To evaluate the transforming potential of HER2 mutations, the growth medium was no longer supplemented with IL-3. Ba/F3 cells harboring the empty vector were used as a control. A switch from IL-3 to EGF was performed for Ba/F3 cells with the EGFR WT known for its dependency on EGF ligand. Approximately ten days before conducting the experiments, puromycin was left out. For proliferation assays (data in table 12 and 14), Ba/F3 cells were seeded into 96-well plates at 5×10^3 cells/100 μL in growth media. Compounds were added by using a HP D3000 Digital Dispenser. All treatments were performed in technical triplicates. Treated cells were incubated for 72 h at 37° C. with 5% CO2. CellTiter-Glo® Luminescent Cell Viability Assay (Promega) was performed and chemoluminescence was measured by using the multilabel Plate Reader VICTOR X4. The raw data were imported into and analyzed with the Boehringer Ingelheim proprietary software MegaLab (curve fitting based on the program PRISM, GraphPad Inc.).

Ba/F3 cells EGFR WT = experiment: Ba/F3 proliferation assay EGFR WT (EGF dependent); conditions: Mus musculus, BaF3, EGF instead of IL-3, 72 h, CellTiter-Glo, read-out: GI50 BAF3 EGF dep.
Experimental: as §1, §2

[1] = tested on: NCI-H2170 (HER2 wild type) cells; experiment: Tumor cell proliferation assay NCI-H2170 (HER2 wild type); conditions: Homo sapiens, 72 h, CellTiter-Glo, read-out: GI50 NCI H-2170 HER2 wt amp.
Experimental: (§3) For proliferation assays, NCI-H2170 (HER2 wild type), NCI-H2170 HER2 YVMA and EGFR WT dependent A431 cells were used. NCI-H2170 HER2 YVMA or NCI-H2170 cells were seeded into 96-well plates at 750 cells/60 μL in growth media (RPMI ATCC+10% FBS, +Penicillin/Streptomycin). […] Compounds were added by using a HP D3000 Digital Dispenser one day after plating the cells. All treatments were performed in technical triplicates. Treated cells were incubated for 72 h at 37° C. with 5% CO2. CellTiter-Glo® Luminescent Cell Viability Assay (Promega) was performed and chemoluminescence was measured by using the multilabel Plate Reader VICTOR X4. The raw data were imported into and analyzed with the Boehringer Ingelheim proprietary software MegaLab (curve fitting based on the program PRISM, GraphPad Inc.).

[2] = tested on: NCI-H2170 HER2 YVMA cells; experiment: Tumor cell proliferation assay NCI-H2170 HER2 YVMA; conditions: Homo sapiens, 72 h, CellTiter-Glo, read-out: GI50 NCI H-2170 HER2 YVMA
Text: HER2 YVMA tumor cell line model generation and proliferation assays
Homology-directed genome engineering was employed to insert a 12 nucleotide sequence encoding YVMA into Exon 20 of the genomic HER2 locus in NCI-H2170 cells. […] The DNA template containing the HER2 exon 20 YVMA insertion variant was obtained from GenScript. PCR followed by Sanger sequencing was used to confirm the presence of the 12-nucleotide insertion in HER2 Exon 20 resulting in the YVMA amino acid duplication.
as §3

[3] = tested on: Ba/F3 cells HER2 mutants (YVMA); experiment: Ba/F3 proliferation assay HER2 YVMA; conditions: Mus musculus, BaF3; 72 h, CellTiter-Glo
Experimental: as §1, §2

[4] = tested on: EGFR WT dependent A431 cells; experiment: Tumor cell proliferation assay A431 (EGFR WT dependent); conditions: Homo sapiens, A-431; 72 h, CellTiter-Glo; read-out: GI50 A431 EGFR wt amp.
Experimental: as §3

HER2 YVMA = biological target: T1, HER2 YVMA (Homo sapiens, UniProt P04626, INS775YVMA); experiment: pHER2 (ERBB2) YVMA assay (AlphaScreen Surefire, HEK cells); conditions: HEK cells expressing HER2 YVMA, phosphorylation at Tyr1221/1222, 4 h
T1 construct: expressed in transfected cells; host or cells: human HEK cells, retroviral transduction, puromycin selection, doxycycline-inducible expression
Experimental: (§4) For the assay, HEK HER2 YVMA cells were seeded in MEM medium with 10% FBS. 4 hours prior to compound addition, HER2 YVMA expression was induced using 1 μg/ml Doxycycline. […] Subsequently, 60.000 cells/well in 60 μL were added. Cells were incubated with compounds for 4 h at 37° C. […] The mixture was incubated at a temperature of 20-25° C. with shaking (700 rpm) for 20 min. After centrifugation, 4 μL of the lysate were transferred to Proxiplates. […] Plates were shaken for 1 min (1400 rpm) and incubated for 2 h at a temperature of 20-25° C. in the dark.
The results of the assay are provided as IC50 values.

EGFR wild type (WT) = biological target: T2, EGFR wild type (WT) (Homo sapiens, UniProt P00533); experiment: pEGFR assay (AlphaScreen Surefire, HEK cells); conditions: HEK cells expressing EGFR WT, phosphorylation at Tyr1068, 4 h
T2 construct: expressed in transfected cells; host or cells: human HEK cells (ATCC CRL-1573), retroviral transduction, puromycin selection
Experimental: This assay quantifies the phosphorylation of EGFR at Tyr1068 and was used to measure the inhibitory effect of compounds on the transgenic EGFR wild type (WT) protein expressed in HEK cells.
as §4, with “Transduced cells were selected using puromycin. p-EGFR Tyr1068 was determined using the AlphaScreen Surefire pEGF Receptor (Tyr1068) Assay (PerkinElmer, TGRERS). For” for “For”, “EGFR WT” for “HER2 YVMA”, “FBS.” for “FBS. 4 hours prior to compound addition, HER2 YVMA expression was induced using 1 μg/ml Doxycycline.”
This cellular phospho-EGFR (pEGFR) compound dose-response assay quantifies the phosphorylation of EGFR at Tyr1068 in HEK cells expressing EGFR WT. The results of the assay are provided as IC50 values.

T1 sequence (P04626 with tags, fused parts or gaps INS775YVMA): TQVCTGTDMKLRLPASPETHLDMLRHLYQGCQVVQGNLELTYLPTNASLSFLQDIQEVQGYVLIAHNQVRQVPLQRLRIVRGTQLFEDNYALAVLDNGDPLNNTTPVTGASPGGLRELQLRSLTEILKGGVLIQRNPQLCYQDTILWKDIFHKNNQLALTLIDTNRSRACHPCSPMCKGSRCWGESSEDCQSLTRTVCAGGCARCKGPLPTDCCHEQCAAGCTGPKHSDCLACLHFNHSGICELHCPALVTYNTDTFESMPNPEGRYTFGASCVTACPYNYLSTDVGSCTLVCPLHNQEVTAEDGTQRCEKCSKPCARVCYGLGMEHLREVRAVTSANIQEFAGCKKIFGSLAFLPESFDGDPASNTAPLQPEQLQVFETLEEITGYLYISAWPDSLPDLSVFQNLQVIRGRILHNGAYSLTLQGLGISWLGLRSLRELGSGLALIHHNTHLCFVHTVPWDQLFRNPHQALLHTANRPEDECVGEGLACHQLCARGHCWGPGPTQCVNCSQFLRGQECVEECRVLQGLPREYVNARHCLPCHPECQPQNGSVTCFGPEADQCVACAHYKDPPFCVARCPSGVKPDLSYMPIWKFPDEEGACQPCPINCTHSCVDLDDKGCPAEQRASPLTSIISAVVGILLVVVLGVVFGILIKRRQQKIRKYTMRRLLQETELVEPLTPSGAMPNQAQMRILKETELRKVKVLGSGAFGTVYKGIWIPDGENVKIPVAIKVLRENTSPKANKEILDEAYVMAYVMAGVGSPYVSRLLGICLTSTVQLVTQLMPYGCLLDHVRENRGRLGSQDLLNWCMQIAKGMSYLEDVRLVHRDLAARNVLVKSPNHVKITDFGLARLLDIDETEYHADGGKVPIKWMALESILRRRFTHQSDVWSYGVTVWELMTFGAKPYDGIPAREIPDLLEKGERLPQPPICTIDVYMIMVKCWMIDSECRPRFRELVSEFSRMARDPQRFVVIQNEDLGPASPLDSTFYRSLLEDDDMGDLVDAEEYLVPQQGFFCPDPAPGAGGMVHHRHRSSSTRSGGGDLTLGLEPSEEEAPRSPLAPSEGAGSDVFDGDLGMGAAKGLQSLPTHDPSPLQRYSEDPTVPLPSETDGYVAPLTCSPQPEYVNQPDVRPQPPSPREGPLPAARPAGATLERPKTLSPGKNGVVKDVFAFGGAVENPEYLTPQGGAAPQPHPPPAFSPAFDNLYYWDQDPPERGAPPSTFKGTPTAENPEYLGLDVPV
T2 sequence (P00533 25-1210): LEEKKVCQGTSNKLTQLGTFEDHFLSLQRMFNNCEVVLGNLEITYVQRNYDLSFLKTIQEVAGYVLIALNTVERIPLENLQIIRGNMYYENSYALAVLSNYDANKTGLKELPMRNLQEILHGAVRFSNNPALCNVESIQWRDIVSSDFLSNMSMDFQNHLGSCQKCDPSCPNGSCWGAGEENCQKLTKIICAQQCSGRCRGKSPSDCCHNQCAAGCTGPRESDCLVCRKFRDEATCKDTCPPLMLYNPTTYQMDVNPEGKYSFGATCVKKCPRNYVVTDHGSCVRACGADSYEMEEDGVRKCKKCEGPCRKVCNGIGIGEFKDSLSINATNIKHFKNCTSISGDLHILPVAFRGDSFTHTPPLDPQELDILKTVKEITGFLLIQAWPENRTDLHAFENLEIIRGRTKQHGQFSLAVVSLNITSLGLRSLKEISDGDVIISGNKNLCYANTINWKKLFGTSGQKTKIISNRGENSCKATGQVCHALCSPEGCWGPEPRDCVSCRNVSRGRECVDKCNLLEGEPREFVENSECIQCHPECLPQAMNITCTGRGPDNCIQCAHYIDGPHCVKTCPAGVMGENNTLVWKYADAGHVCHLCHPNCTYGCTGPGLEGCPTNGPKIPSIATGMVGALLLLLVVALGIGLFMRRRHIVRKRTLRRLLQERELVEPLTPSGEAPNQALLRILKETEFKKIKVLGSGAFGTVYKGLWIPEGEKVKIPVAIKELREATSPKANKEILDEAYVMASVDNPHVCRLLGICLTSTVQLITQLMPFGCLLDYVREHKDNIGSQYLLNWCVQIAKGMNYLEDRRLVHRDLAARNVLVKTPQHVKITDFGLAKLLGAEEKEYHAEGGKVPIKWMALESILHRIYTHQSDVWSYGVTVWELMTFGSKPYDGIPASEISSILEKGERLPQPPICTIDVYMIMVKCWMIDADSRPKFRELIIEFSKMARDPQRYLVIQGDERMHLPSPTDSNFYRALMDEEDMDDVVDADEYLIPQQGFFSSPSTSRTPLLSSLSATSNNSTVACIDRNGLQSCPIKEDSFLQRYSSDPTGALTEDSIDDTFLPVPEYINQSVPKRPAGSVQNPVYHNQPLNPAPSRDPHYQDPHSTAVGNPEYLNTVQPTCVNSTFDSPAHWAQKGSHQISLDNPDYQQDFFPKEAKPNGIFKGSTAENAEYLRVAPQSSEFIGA

Compound: C=CC(=O)N1CCN(c2ncc3ncnc(Nc4cc(F)c(Oc5ccc6c(c5)ncn6C)c(Cl)c4)c3n2)CC1 [Compound I-8]
- GI50 (Ba/F3 cells HER2 WT): 3 nM
- GI50 (Ba/F3 cells EGFR WT): 1040 nM
- GI50 [1]: 21 nM
- GI50 [2]: 172 nM
- GI50 [3]: 31 nM
- GI50 [4]: 3930 nM
- IC50 (HER2 YVMA): 22 nM
- IC50 (EGFR wild type (WT)): 355 nM
